This is an account of results in patent US6242445A, “Benzimidazole derivative” (Kureha Chemical Industry Co., Ltd., priority 1998, dated 2001).

Data set [1] deals with T1, angiotensin II receptor subtype 1 (AT1) (Oryctolagus cuniculus, UniProt P34976).
T1 construct: from adrenal glands in rabbits; from tissue; host or cells: adrenal glands of rabbits
T1 sequence (P34976 1-359): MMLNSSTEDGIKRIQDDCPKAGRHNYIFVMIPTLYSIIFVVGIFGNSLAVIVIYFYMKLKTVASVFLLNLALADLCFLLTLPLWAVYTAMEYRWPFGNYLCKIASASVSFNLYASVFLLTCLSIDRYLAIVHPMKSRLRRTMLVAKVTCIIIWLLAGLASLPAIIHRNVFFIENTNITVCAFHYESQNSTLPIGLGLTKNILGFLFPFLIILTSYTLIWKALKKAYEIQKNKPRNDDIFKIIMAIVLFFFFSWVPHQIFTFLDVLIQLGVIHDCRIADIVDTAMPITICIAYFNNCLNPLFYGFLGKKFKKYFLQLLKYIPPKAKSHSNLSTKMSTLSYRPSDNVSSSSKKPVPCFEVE
The experiment in a line: Binding assay, angiotensin II receptor subtype 1 (AT1). On the set-up: species or system rabbits; inhibition: dose or concentration left out as unconfirmed. Particulars: 3 h. How it is done:
(§1) In this Example, a binding assay was carried out. That is, the affinity to the angiotensin II receptor subtype 1 orsubtype 2 was evaluated in accordance with the method described in Biochem. Pharmacol., 33, 4057-4062 (1984).
(§2) Specifically, the measurement of the total binding in the presence of each drug was performed as follows:
(§3) A mixture (final volume=0.25 ml) of a drug in a given concentration (the drug was dissolved in DMSO, and diluted to a double volume with a buffer attached to a drug discovery system to prepare a sample for the assay; 0.025 ml), a tracer (0.025 ml), and receptors (0.2 ml) was incubated [in the case of the angiotensin II receptor subtype 1 (AT1), at room temperature for 3 hours, and in the case of the subtype 2 (AT2), at 37° C. for 1 hour]. Then, the reaction mixture was filtered with suction (a GF/C filter was used in AT1, and a GF/B filter was used in AT2). The filter papers after filtration with suction (the tracer bound to the receptors) were counted by a γ-well counter (ARC-500, Aloka). The non-specific bindings were measured by repeating the above method, except that a large excess amount of a displacer was added. The specific binding of the drug in the given concentration was calculated by subtracting the non-specific binding from the total binding, respectively.
tracer: ^3 H-angiotensin II

Data set [2] addresses T2, angiotensin II receptor subtype 2 (AT2) (Bos taurus, UniProt G5E6F7).
T2 construct: from cerebellar cortex in bovine; from tissue; host or cells: cerebellar cortex, bovine
T2 sequence (G5E6F7 1-362): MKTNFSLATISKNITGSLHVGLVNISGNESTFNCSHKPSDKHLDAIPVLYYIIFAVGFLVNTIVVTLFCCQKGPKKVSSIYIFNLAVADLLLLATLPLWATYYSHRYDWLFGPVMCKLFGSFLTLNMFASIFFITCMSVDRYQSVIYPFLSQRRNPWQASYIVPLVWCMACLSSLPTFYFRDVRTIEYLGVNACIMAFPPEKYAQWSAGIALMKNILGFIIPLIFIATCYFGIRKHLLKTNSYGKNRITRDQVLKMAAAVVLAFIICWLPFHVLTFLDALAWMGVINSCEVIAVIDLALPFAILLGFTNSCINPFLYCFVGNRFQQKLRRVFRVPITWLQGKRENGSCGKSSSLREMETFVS
In words: Binding assay, angiotensin II receptor subtype 2 (AT2). On the set-up: species or system bovine; dose or concentration left out as unconfirmed. The note with it: 1 h; tracer 125I-Tyr4-angiotensin II. How it is done: as §1, §2, §3
In AT1 and AT2, the percentages found to inhibit the bindings of radioactive ligands (tracer) to receptors by the drugs to be tested (IC50 value of concentration to show 50% inhibition, […]) were measured, using the drugs to be tested and control drugs in the given concentration.
receptor: from cerebellar cortex in bovine
tracer: ^125 I-Tyr^4 -angiotensin II
control drug: angiotensin II (human)
(displacer): angiotensin II (human)

The conditions of data set [3]: J. Clin. Pharmacol., 30: 155 to 158, 1990; cited from earlier work.
The subject of another data set is ICR female mice. In words: Acute toxicity (single oral administration). In kind it is in vivo. The note with it: 500 mg/kg single oral; deaths observed for 6 days. How it is done:
Acute toxicity was evaluated in this Example. As a compound to be examined, 2-ethoxy-1-[[4'-(2"-N,N-dimethylamino-ethoxycarbonyl)phenyl]methyl]-1H-benzimidazole-6-carboxylic acid morpholide (Compound No. 13) prepared in Example 6 was used.
Five-week-old ICR female mice (5 mice per group) were bredfor acclimation for a week. Then, Compound No. 13 was dissolved or suspended in 0.5% methylcellulose aqueous solution, and orally administered to the mice in a single dosage (500 mg/kg). […] Further, as to Compound No. 55, Compound No. 57, Compound No. 59, and Compound No. 65 prepared in Examples 26, 28, 31, and 23, respectively, acute toxicity was also evaluated.

For the compound `CCCCOc1nc2ccc(C(=O)N3CCOCC3)cc2n1Cc1ccc(C(=O)O)cc1` [Compound No. 4], the inhibition (in general, the percentage by which the read-out fell short of the control) was 45% in data set [1] and 0% in data set [2].

Turning to `C[C@H](CS)C(=O)N1CCC[C@H]1C(=O)O` [Captopril], in data set [3], the Blood pressure result is reported as “the blood pressure is lowered” and the “progress of the kidney diseases” value is given as “the progress of the kidney diseases is ameliorated”.

For the compound `CCOc1nc2ccc(C(=O)N3CCCC3)cc2n1Cc1ccc(C(=O)O)cc1` [Compound No. 6, 2-ethoxy-1-[(4'-carboxyphenyl)methyl]-1H-benzimidazole-6-carboxylic acid pyrrolidinamide], the inhibition amounted to 50% in data set [1] and 0% in data set [2].

Consider `CCOc1nc2ccc(C(=O)N3CCOCC3)cc2n1Cc1ccc(O)cc1` [compound 2], for which the inhibition in data set [1] and in data set [2] was 0% in each case.

For `CCOc1nc2ccc(C(=O)N3CCCCC3)cc2n1Cc1ccc(C(=O)OCCN(C)C)cc1` [Compound No. 55, 2-ethoxy-1-[[4'-(2"-N,N-dimethylaminoethoxycarbonyl)phenyl]methyl]-1H-benzimidazole-6-carboxylic acid piperidinamide], the “Number of deaths/number of survivals” value with ICR female mice is reported as 0/5.

Turning to `CCOc1nc2ccc(C(=O)N3CCOCC3)cc2n1Cc1ccc(C(=O)O)cc1` [Compound No. 1, 2-ethoxy-1-[(4'-carboxyphenyl)methyl]-1H-benzimidazole-6-carboxylic acid morpholide], the inhibition is 45% in data set [1] and 0% in data set [2].

With `CCOc1nc2ccc(C(=O)N3CCCC3)cc2n1Cc1ccc(C(=O)OCCN(C)C)cc1` [Compound No. 65, 2-ethoxy-1-[[4'-[2"-(dimethylamino)-ethoxycarbonyl]phenyl]methyl]-1H-benzimidazole-6-carboxylic acid pyrrolidinamide], in the data set on ICR female mice, the “Number of deaths/number of survivals” value is listed as 0/5.

Regarding `CCOc1nc2ccc(C(=O)N3CCCCCC3)cc2n1Cc1ccc(C(=O)OCCN(C)C)cc1` [Compound No. 59, 2-ethoxy-1-[[4'-(2"-N,N-dimethylaminoethoxycarbonyl)phenyl]methyl]-1H-benzimidazole-6-carboxylic acid perhydroazepinamide], the “Number of deaths/number of survivals” value in the data set on ICR female mice is reported as 0/5.

For the compound `CCCOc1nc2ccc(C(=O)N3CCOCC3)cc2n1Cc1ccc(C(=O)O)cc1` [Compound No. 3, 2-n-propoxy-1-[(4'-carboxyphenyl)methyl]-1H-benzimidazole-6-carboxylic acid morpholide], the results for the inhibition in data set [1] and in data set [2] were 45% and 0%, respectively.

As to `CCOc1nc2ccc(C(=O)N3CCCCC3)cc2n1Cc1ccc(C(=O)O)cc1` [Compound No. 5, 2-ethoxy-1-[(4'-carboxyphenyl)methyl]-1H-benzimidazole-6-carboxylic acid piperidinamide], the inhibition in data set [1] is 50%; in data set [2], 0%.

Turning to `CCOC(=O)[C@H](CCc1ccccc1)N[C@@H](C)C(=O)N1CCC[C@H]1C(=O)O` [Enalapril], in data set [3], the Blood pressure result is recorded as “the blood pressure is lowered” and the “progress of the kidney diseases” value is “the progress of the kidney diseases is ameliorated”.
